Experimental findings from PubChem BioAssay (NCI) are described below.

Test systems include MDA-MB-231 breast; NCI-H522 lung; PC-3 prostate; SF-268 CNS; SK-MEL-2 melanoma; CCRF-CEM leukemia; K-562 leukemia; RPMI-8226 leukemia; SNB-75 CNS; BT-549 breast.
Holding throughout (assay): inhibition of tumour cell growth, NCI panel, 48 h

Values joined by “and” are separate entries in the source; they are usually repeats but may differ in a detail not shown here. Equal entries are not always repeated.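 Method: 48-hour compound exposure of cells in 96-well plates, five concentrations, linear interpolation of endpoints. At the GI50, growth is halved. The concentration for full growth arrest is given as TGI.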

For `CNc1ncnc2c1nc(NC1CCCC1)n2C1OC(CO)C(O)C1O` (stereo unspecified), the TGI in the assay with MDA-MB-231 breast, in the assay on NCI-H522 lung, in the assay with PC-3 prostate, in the assay on SF-268 CNS and in the assay on SK-MEL-2 melanoma was over 100 µM each time.

On to `O=C(O)/C=C/c1ccc2c(c1)CC1(Cc3ccccc3C1)C2`, for which the TGI in the assay on CCRF-CEM leukemia, with K-562 leukemia, with MDA-MB-231 breast, in the assay on NCI-H522 lung, with PC-3 prostate and in the assay with RPMI-8226 leukemia was over 100 µM in each case. Besides, the TGI in the assay with SK-MEL-2 melanoma came out at 87.7 µM.

As to `O=C(O)/C=C/c1c[nH]c(=O)[nH]c1=O`, the TGI in the assay with CCRF-CEM leukemia is over 316 µM; in the assay with K-562 leukemia, over 500 µM; with NCI-H522 lung it was over 500 µM; in the assay on RPMI-8226 leukemia it was over 500 µM; with SF-268 CNS it was over 500 µM; with SK-MEL-2 melanoma, over 500 µM. This compound showed a TGI in the assay on SNB-75 CNS of over 500 µM.

As to `CCOC(=O)c1c(SC(=O)c2ccc(OC)cc2)n(-c2ccccc2)c(=S)n(-c2ccccc2)c1=O`, the TGI is over 100 µM with CCRF-CEM leukemia; over 100 µM in the assay with K-562 leukemia; 81 µM with MDA-MB-231 breast; over 100 µM in the assay with NCI-H522 lung; over 100 µM with PC-3 prostate; 43.4 µM with SF-268 CNS. Also, the TGI in the assay on SNB-75 CNS was over 100 µM.

As to `O=C(Nc1ccc(S(=O)(=O)/N=c2\ncccn2C(=O)C(C(F)(F)F)C(F)(F)F)cc1)C(C(F)(F)F)C(F)(F)F`, the TGI in the assay with CCRF-CEM leukemia, in the assay with K-562 leukemia, with MDA-MB-231 breast, with NCI-H522 lung, in the assay with PC-3 prostate and with RPMI-8226 leukemia was over 100 µM each time. Moreover, the TGI in the assay with SF-268 CNS, in the assay on SK-MEL-2 melanoma and in the assay on SNB-75 CNS was over 100 µM each time.

Regarding `COc1cc(-c2c3c(cc4c2OCO4)[C@@H](Nc2ccc(-c4ccc(-c5ccc(N[C@@H]6c7cc8c(cc7C(c7cc(OC)c(O)c(OC)c7)[C@H]7C(=O)OC[C@H]67)OCO8)cc5)cc4)cc2)[C@H]2COC(=O)[C@@H]2C3)cc(OC)c1O` (stereo partly specified), the TGI is 6.76 µM in the assay on BT-549 breast; over 100 µM in the assay with CCRF-CEM leukemia; 6 µM with MDA-MB-231 breast; 8.37 µM in the assay with PC-3 prostate; 10.9 µM in the assay with SF-268 CNS.

In the case of `Clc1ccc(C[P+](c2ccccc2)(c2ccccc2)c2ccccc2)cc1Cl`, the TGI was 28.3 µM in the assay with CCRF-CEM leukemia; over 100 µM in the assay with K-562 leukemia; 10.3 µM with NCI-H522 lung; 11.3 µM with SF-268 CNS; 6.4 µM in the assay with SK-MEL-2 melanoma; 5.1 µM in the assay on SNB-75 CNS.

Turning to `NC(Cc1ccc2nc3c4ccccc4c(=O)cc-3oc2c1)C(=O)O` (stereo unspecified), the TGI in the assay with BT-549 breast, with CCRF-CEM leukemia, in the assay with K-562 leukemia, with MDA-MB-231 breast, in the assay with PC-3 prostate and in the assay with RPMI-8226 leukemia was over 100 µM throughout. Also, the TGI with SF-268 CNS, in the assay with SK-MEL-2 melanoma and with SNB-75 CNS was over 100 µM throughout.

Turning to `C#CC(O)/C=C/CCCCCCC#CC/C=C\CC#CCCCCCCCCC(O)C#C` (stereo unspecified), the TGI with BT-549 breast was 20.4 µM; in the assay on K-562 leukemia, over 21.6 µM; with MDA-MB-231 breast it was 11.8 µM; with NCI-H522 lung, 0.526 µM; in the assay on PC-3 prostate it was 31.6 µM; in the assay with SF-268 CNS it was 25.8 µM. Besides, the TGI is 9.44 µM in the assay with SK-MEL-2 melanoma and 23.4 µM in the assay with SNB-75 CNS.

As to `CN(C)c1ccc(/C=C/c2sc3ccccc3[n+]2C)cc1`, the GI50 in the assay on K-562 leukemia is 0.515 µM and 0.856 µM; with MDA-MB-231 breast, 2 µM and 7.25 µM; in the assay with RPMI-8226 leukemia, 0.355 µM; with SNB-75 CNS it was 0.35 µM and 2.3 µM. Besides, the TGI in the assay on K-562 leukemia was 4.26 µM and 26.2 µM; with MDA-MB-231 breast it was 10.1 µM and 33.8 µM; with NCI-H522 lung, 11.1 µM and 7.29 µM; in the assay on PC-3 prostate, 10.9 µM and 22.8 µM; in the assay on RPMI-8226 leukemia, 0.719 µM and 4.19 µM; with SF-268 CNS, 17.5 µM and 23 µM. Moreover, in the assay with SK-MEL-2 melanoma, the TGI is 8.88 µM and 5.81 µM.

`NC(=S)N1N=C2c3ccccc3CC[C@H]2[C@@H]1c1ccc(Cl)cc1`: the TGI in the assay with CCRF-CEM leukemia is over 100 µM; with K-562 leukemia, 82.5 µM; with NCI-H522 lung, 35.4 µM; in the assay on RPMI-8226 leukemia, over 100 µM; with SF-268 CNS it was over 100 µM; in the assay with SK-MEL-2 melanoma, 61.1 µM.

With `CC(=O)NC1=NC(=O)/C(=C/c2ccc(/C=C3/C(=O)N=C(NC(C)=O)N3C)cc2)N1C`, the TGI in the assay on BT-549 breast, in the assay with MDA-MB-231 breast, with SF-268 CNS, in the assay with SK-MEL-2 melanoma and in the assay on SNB-75 CNS was over 100 µM each time.

Regarding `NCCN1C(=O)c2ccccc2C1c1ccc(Cl)cc1` (stereo unspecified), the TGI in the assay on BT-549 breast, with CCRF-CEM leukemia, in the assay on K-562 leukemia, in the assay with MDA-MB-231 breast, with PC-3 prostate and with RPMI-8226 leukemia was over 100 µM throughout. Besides, the TGI in the assay with SF-268 CNS, in the assay with SK-MEL-2 melanoma and in the assay with SNB-75 CNS was over 100 µM throughout.

For `C=C=CC(NC(=O)c1ccccc1)(C(=O)O)C(F)(F)F` (stereo unspecified), the TGI in the assay with CCRF-CEM leukemia, in the assay with K-562 leukemia, with RPMI-8226 leukemia, in the assay on SF-268 CNS, with SK-MEL-2 melanoma and with SNB-75 CNS was over 100 µM throughout.

In the case of `CC(=O)OC1[C@H](OC(C)=O)C2=C(C)[C@@H](OC(C)=O)C[C@@]2(C(C)(C)O)[C@@H](OC(C)=O)[C@H]2[C@@]1(C)[C@@H](OC(C)=O)CC(OC(C)=O)[C@]21CO1` (stereo partly specified), the TGI with CCRF-CEM leukemia, with K-562 leukemia, in the assay with NCI-H522 lung, with PC-3 prostate, in the assay with RPMI-8226 leukemia and in the assay with SF-268 CNS was over 100 µM throughout. The TGI with SK-MEL-2 melanoma and with SNB-75 CNS was over 100 µM in each case.

For the compound `COc1nc2ccc(COc3ccc(C(=O)O)cc3)cc2nc1OC`, the TGI in the assay with CCRF-CEM leukemia is 97.4 µM; with K-562 leukemia, over 100 µM; with MDA-MB-231 breast, over 100 µM; with NCI-H522 lung, over 100 µM; in the assay with PC-3 prostate it was over 100 µM; with SF-268 CNS it was over 100 µM. Moreover, the TGI in the assay on SK-MEL-2 melanoma was over 100 µM; in the assay on SNB-75 CNS, 53.4 µM.
